According to patent publication US20230107642A1 (Erasca, Inc., priority 2020, published 2023):

Biological target: T1, Cys12 of the KRAS 4B G12C protein (Homo sapiens, UniProt P01116, G12C)
T1 construct: This protein contained 188 amino acids in total, including an N-terminal 6-Histidine tag; made in house; host or cells: E. coli BL21
Assay: In vitro covalent adduct formation (CAF) assay, LC-MS intact mass
Format: binding
Settings: for % CAF 10 uM @ 60 min: 10 uM compound
Description: This Example provides a protocol for assessing covalent adduct formation (CAF) between the compounds of the present application and KRAS.
In vitro covalent adduct formation assay: Covalent adduct formation (CAF) reactions between Cys12 of the KRAS 4B G12C protein and some of the compounds of Tables 1 to 4 were measured in vitro using liquid chromatography-mass spectrometry (LC-MS).
Recombinant Human KRAS 4B protein containing the G12C mutation was used in compound screening experiments. This protein contained 188 amino acids in total, including an N-terminal 6-Histidine tag, followed by a Tobacco Etch Virus (TEV) tag, followed by residues 1-169 of the native KRAS 4B sequence. The exact mass of the protein was 21,310 Da as determined by mass spectrometry. The full amino acid sequence is shown below: […]
The recombinant protein was expressed in E. coli BL21 cells and purified using affinity chromatography via a Ni-NTA column. Protein stocks were nucleotide-exchanged to >95% GDP, concentrated to 4 mg/mL, and stored at −80° C. in storage buffer (50 mM HEPES pH 7.4, 50 mM NaCl, 5 mM MgCl2, 1 mM DTT). Pure KRAS 4B G12C protein was diluted to a concentration of 5 μM in Tris Buffered Saline, pH 7.4. The compounds were dissolved in DMSO and added to the diluted protein to make a 10 μM concentration. The total DMSO concentration in the reaction was 4%. The reaction was mixed by pipetting and incubated at 22° C. for one hour. Aliquots of the reaction were taken over time and diluted 2:1 in 0.1% formic acid. The intact mass of the protein samples was measured by LC-MS using a QExactive+ mass spectrometer (Thermo Scientific). An amount of 500 ng total protein was injected onto a C8 reverse phase column, eluted with a seven-minute gradient of 30%-90% acetonitrile/0.1% formic acid, and analyzed for intact mass by the mass spectrometer. Adducts identified were confirmed to be within 1 Dalton of the expected mass, and the relative ratios of free:adduct protein were used to quantify the percentage of protein bound by the compound. CAF reactions were run in duplicate, with a typical variability of ±5%.

% CAF 10 uM @ 60 min (60 min) [%]	Compound	also measured
–	C=CC(=O)N1[C@H](C)CN(c2nc(=O)n3c4c(c(-c5ccc(F)cc5)c(C(F)(F)F)cc24)SC[C@@H](OCCOC)C3)C[C@@H]1C [Example 1025, (S)-8-((3S,5R)-4-acryloyl-3,5-dimethylpiperazin-1-yl)-11-(4-fluorophenyl)-3-(2-methoxyethoxy)-10-(trifluoromethyl)-3,4-dihydro-2H,6H-[1,4]thiazepino[2,3,4-ij]quinazolin-6-one]	CAF (% binding after 60 min): 96%
92.1	C=CC(=O)N1C[C@H](C)N(c2nc(=O)n3c4c(c(-c5ccc(F)c(Cl)c5)c(C(F)(F)F)cc24)SC[C@@H]3COCOC)C[C@H]1C [Example 1363, (S)-7-((2S,5R)-4-acryloyl-2,5-dimethylpiperazin-1-yl)-10-(3-chloro-4-fluorophenyl)-3-((methoxymethoxy)methyl)-9-(trifluoromethyl)-2,3-dihydro-5H-[1,4]thiazino[2,3,4-ij]quinazolin-5-one]	–
–	C=CC(=O)N1CCN(c2nc(=O)n3c4c(c(-c5ccc(F)cc5)c(C(F)(F)F)cc24)SC[C@@H](OCOC)C3)CC1 [Example 1004, (S)-8-(4-acryloylpiperazin-1-yl)-11-(4-fluorophenyl)-3-(methoxymethoxy)-10-(trifluoromethyl)-3,4-dihydro-2H,6H-[1,4]thiazepino[2,3,4-ij]quinazolin-6-one]	CAF (% binding after 60 min): 97%
93	C=CC(=O)N1[C@H](C)CN(c2nc(=O)n3c4c(c(-c5ccc(F)cc5F)c(C(F)(F)F)cc24)SCC(CO)(CO)C3)C[C@@H]1C [Example 1442, 8-((3S,5R)-4-acryloyl-3,5-dimethylpiperazin-1-yl)-11-(2,4-difluorophenyl)-3,3-bis(hydroxymethyl)-10-(trifluoromethyl)-3,4-dihydro-2H,6H-[1,4]thiazepino[2,3,4-ij]quinazolin-6-one]	–
–	C=CC(=O)N1[C@H](C)CN(c2nc(=O)n3c4c(c(-c5cccc6cnn(C)c56)c(C(F)(F)F)cc24)SCC2(COC2)C3)C[C@@H]1C (atropisomer, axis not shown) [Example 1133, (R)-8′-((3S,5R)-4-acryloyl-3,5-dimethylpiperazin-1-yl)-11′-(1-methyl-1H-indazol-7-yl)-10′-(trifluoromethyl)-2′H,4′H,6′H-spiro[oxetane-3,3′-[1,4]thiazepino [2,3,4-ij]quinazolin]-6′-one]	% CAF 10 uM @ 60 min (60 min incubation): 54.1%
–	C=C(F)C(=O)N1CCN(c2nc(=O)n3c4c(c(-c5cc(Cl)c(F)cc5F)c(C(F)(F)F)cc24)SC[C@@H](OC)C3)CC1 [Example 1219, (3S)-11-(5-Chloro-2,4-difluorophenyl)-8-(4-(2-fluoroacryloyl)piperazin-1-yl)-3-methoxy-10-(trifluoromethyl)-3,4-dihydro-2H,6H-[1,4]thiazepino[2,3,4-ij]quinazolin-6-one]	CAF (% after 1 hour) (10 μM compound, after 1 hour): 64%
97.2	C=CC(=O)N1CCN(c2nc(=O)n3c4c(c(-c5ccc(F)cc5F)c(C(F)(F)F)cc24)SC[C@@H]3CN2C[C@@H]3C[C@H]2CO3)CC1 (atropisomer, axis not shown) [Example 1305, (3S,10R)-3-(((1S,4S)-2-oxa-5-azabicyclo[2.2.1]heptan-5-yl)methyl)-7-(4-acryloylpiperazin-1-yl)-10-(2,4-difluorophenyl)-9-(trifluoromethyl)-2,3-dihydro-5H-[1,4]thiazino[2,3,4-ij]quinazolin-5-one]	–
95.4	C=CC(=O)N1[C@H](C)CN(c2nc(=O)n3c4c(c(-c5ccc(F)cc5F)c(C(F)(F)F)cc24)SC[C@@H]3CN2CCN(CC)CC2)C[C@@H]1C (atropisomer, axis not shown) [Example 1329, (3S,10R)-7-((3S,5R)-4-acryloyl-3,5-dimethylpiperazin-1-yl)-10-(2,4-difluorophenyl)-3-((4-ethylpiperazin-1-yl)methyl)-9-(trifluoromethyl)-2,3-dihydro-5H-[1,4]thiazino[2,3,4-ij]quinazolin-5-one]	–
–	C=CC(=O)N1[C@H](C)CN(c2nc(=O)n3c4c(c(-c5ccc(F)cc5F)c(Cl)cc24)SC[C@@H]3COC)C[C@@H]1C [Example 1113, (3S)-7-((3S,5R)-4-acryloyl-3,5-dimethylpiperazin-1-yl)-9-chloro-10-(2,4-difluorophenyl)-3-(methoxymethyl)-2,3-dihydro-5H-[1,4]thiazino[2,3,4-ij]quinazolin-5-one]	% CAF 10 uM @ 60 min (60 min incubation): 96.8%
83.7	C=CC(=O)N1[C@H](C)CN(c2nc(=O)n3c4c(c(-c5ccc(F)cc5)c(C(F)(F)F)cc24)SC[C@H](COC)C3)C[C@@H]1C [Example 1408, (S)-8-((3S,5R)-4-acryloyl-3,5-dimethylpiperazin-1-yl)-11-(4-fluorophenyl)-3-(methoxymethyl)-10-(trifluoromethyl)-3,4-dihydro-2H,6H-[1,4]thiazepino[2,3,4-ij]quinazolin-6-one]	–
–	C=CC(=O)N1C[C@H](C)N(c2nc(=O)n3c4c(c(-c5cccc6cnn(C)c56)c(C(F)(F)F)cc24)SC[C@@H]3COC)C[C@H]1C (atropisomer, axis not shown) [Example 1102, (3S,10S)-7-((2S,5R)-4-acryloyl-2,5-dimethylpiperazin-1-yl)-3-(methoxymethyl)-10-(1-methyl-1H-indazol-7-yl)-9-(trifluoromethyl)-2,3-dihydro-5H-[1,4]thiazino[2,3,4-ij]quinazolin-5-one]	% CAF 10 uM @ 60 min (60 min incubation): 94.5%
78.9	C=CC(=O)N1[C@H](C)CN(c2nc(=O)n3c4c(c(-c5cc(Cl)c(F)cc5F)c(C(F)(F)F)cc24)SC[C@@H]3CN2C[C@@H]3C[C@H]2CO3)C[C@@H]1C [Example 1302, (3S)-3-(((1S,4S)-2-oxa-5-azabicyclo[2.2.1]heptan-5-yl)methyl)-7-((3S,5R)-4-acryloyl-3,5-dimethylpiperazin-1-yl)-10-(5-chloro-2,4-difluorophenyl)-9-(trifluoromethyl)-2,3-dihydro-5H-[1,4]thiazino[2,3,4-ij]quinazolin-5-one]	–
97	C=CC(=O)N1[C@H](C)CN(c2nc(=O)n3c4c(c(-c5cc(Br)c(F)cc5F)c(C(F)(F)F)cc24)SCC2(COC2)C3)C[C@@H]1C [Example 1452, 8′-((3S,5R)-4-acryloyl-3,5-dimethylpiperazin-1-yl)-11′-(5-bromo-2,4-difluorophenyl)-10′-(trifluoromethyl)-2′H,4′H,6′H-spiro[oxetane-3,3′-[1,4]thiazepino[2,3,4-ij]quinazolin]-6′-one]	–
–	C=CC(=O)N1CCN(c2nc(=O)n3c4c(c(-c5ccc(F)cc5)c(C(F)(F)F)cc24)SC[C@H](O)C3)CC1 [Example 1002, (R)-8-(4-acryloylpiperazin-1-yl)-11-(4-fluorophenyl)-3-hydroxy-10-(trifluoromethyl)-3,4-dihydro-2H,6H-[1,4]thiazepino[2,3,4-ij]quinazolin-6-one]	CAF (% binding after 60 min): 97%
–	C=CC(=O)N1[C@H](C)CN(c2nc(=O)n3c4c(c(-c5cc(Cl)c(F)cc5F)c(C(F)(F)F)cc24)SC[C@@H](N2CCOCC2)C3)C[C@@H]1C (atropisomer, axis not shown) [Example 1136, (3S,11R)-8-((3S,5R)-4-acryloyl-3,5-dimethylpiperazin-1-yl)-11-(5-chloro-2,4-difluorophenyl)-3-morpholino-10-(trifluoromethyl)-3,4-dihydro-2H,6H-[1,4]thiazepino [2,3,4-ij]quinazolin-6-one]	% CAF 10 uM @ 60 min (60 min incubation): 82.7%
97	[2H]C1([2H])N(C(=O)C=C)C([2H])([2H])C([2H])([2H])N(c2nc(=O)n3c4c(c(-c5cc(Cl)c(F)cc5F)c(C(F)(F)F)cc24)SCC2(COC2)C3)C1([2H])[2H] [Example 1309, 8′-(4-acryloylpiperazin-1-yl-2,2,3,3,5,5,6,6-d8)-11′-(5-chloro-2,4-difluorophenyl)-10′-(trifluoromethyl)-2′H,4′H,6′H-spiro[oxetane-3,3′-[1,4]thiazepino[2,3,4-ij]quinazolin]-6′-one]	–
61	C=CC(=O)N1[C@H](C)CN(c2nc(=O)n3c4c(c(-c5ccc(F)cc5)c(C(F)(F)F)cc24)SC[C@@H]3CN2CCN(C3CC3)CC2)C[C@@H]1C [Example 1333, (S)-7-((3S,5R)-4-acryloyl-3,5-dimethylpiperazin-1-yl)-3-((4-cyclopropylpiperazin-1-yl)methyl)-10-(4-fluorophenyl)-9-(trifluoromethyl)-2,3-dihydro-5H-[1,4]thiazino[2,3,4-ij]quinazolin-5-one]	–

Compound	% CAF 10 uM @ 60 min (60 min) [%]	also measured
C=CC(=O)N1C2CCC1CN(c1nc(=O)n3c4c(c(-c5cc(Cl)c(F)cc5F)c(C(F)(F)F)cc14)SC[C@@H]3COC)C2 [Example 1394, (3S,10R)-7-((1R,5S)-8-acryloyl-3,8-diazabicyclo[3.2.1]octan-3-yl)-10-(5-chloro-2,4-difluorophenyl)-3-(methoxymethyl)-9-(trifluoromethyl)-2,3-dihydro-5H-[1,4]thiazino[2,3,4-ij]quinazolin-5-one]	93.5	–
